A word on the IC50: it is the concentration that gives 50% inhibition. Usually EC50 stands for the concentration that produces a half-maximal response.

Like-named read-outs stand apart in the source and are kept apart here. A value given as a limit tells only on which side of the number the result lay.

One data set has as its system NCI-H460 cells. In words: cells. The data set is classed as cell-based, Human. Conditions: for IC50: Homo sapiens, NCI-H460, H460 cells, read-out: IC50; for cytotoxicity / activity for H460 cells, in words: comparison. The protocol: Human non-small cell lung cancer cells (NCI-H460) were purchased from the American Type Culture Collection (Manassas, Va.). NCI-H460 cells were cultured in RPMI 1640 medium supplemented with 10% bovine fetal serum (FBS), 2 mM L-glutamine and 100-units/ml penicillin/streptomycin. All experiments with NCI-H460 cells were performed in medium enriched with 1% FBS serum, 2 mM L-glutamine and 100-units/ml penicillin/streptomycin. 1% FBS was used due to existing concerns about digitoxin binding to serum proteins.
Cells were seeded overnight in 96 well plates at a concentration of 1×10^4 cells/well, and then treated for 48 h with a log10 scale dilution series of the glycosylated CS compounds (e.g., digitoxin or D6-MA) dissolved in sterile filtered DMSO. Subsequently, 10 μl of 5 mg/ml MTT reagent was added to each well and then incubated for 4 h at 37° C. Isopropanol acidified with 0.04 N HCl was used to dissolve converted dye. Absorbance at 570 nm was measured using an Automated Microplate Reader ELx800 (BioTek, Winooski, Vt.). Each experiment was conducted 4 times with 4 replicate wells per concentration.
All results are presented as mean±standard deviation. For cell viability, ATPase activity and apoptosis assays, dose-response curves and concentrations that caused 50% effect (i.e. IC50) were calculated for the prepared compounds listed in Tables 1-3 in all the cell lines tested using non-linear regression analysis in GraphPad Prism 5.0 (San Diego, Calif.). Two-way analysis of variance (ANOVA) and unpaired two-tailed Student's t-test with α=0.05 were performed to compare the effect of compounds and administered dose on cell viability, apoptosis and quantified protein expression data. Post-hoc Tukey-Kramer HSD tests were conducted on significant ANOVA results. Results were considered significant when p≦0.05.

For another data set, the system named is HCMV. In words: Anti-CMV activity assay, inhibition of HCMV replication in infected HFFs. The data set is classed as cell-based, human Cytomegalovirus (HCMV). To be noted: anti-HCMV activity in infected HFFs; read-out: EC50. The protocol: It has been observed that the infection of human foreskin fibroblasts (HFF) cells with HCMV causes an up regulation of the α3-isoform of the Na^+/K^+-Pump. Therefore the inhibition of HCMV replication by the compounds described herein was tested using procedure described by Cai, H. et al., in Med. Chem. Lett. 2014, 5, 395-399, which is incorporated by reference in its entirety. Generally, inhibition of Towne HCMV: pp28-luciferase activity was measured in cell lysates of HCMV-infected HFFs collected at 72 h post infection (hpi). Virus DNA yield in supernatants of HCMV-infected cells collected at 96 hpi was measured by real-time PCR. Plaque reduction assay performed at 8 days postinfection. Data represent mean values (±SD) of triplicate determinations from three independent experiments.
Inhibition of TB40 HCMV: HFFs were infected with HCMV-TB40 strain at MOI of 1 pfu/cell and treated with compounds listed in Tables 1-3 for 3 days.
The glycosylated cardiotonic steroid compounds were tested for their anti-cytomegalovirus (CMV) activity. Specifically, the compounds were tested for the ability to inhibit HCMV replication. For each compound, the anti-HCMV activity in infected HFFs was expressed as EC50, whereas cytotoxicity in noninfected HFFs was expressed as CC50. Selectivity index (SI), defined as CC50/EC50, was calculated for each compound.

With `CC1O[C@@H](O[C@H]2CCC3(C)C(CC[C@@H]4C3CCC3(C)[C@@H](C5=CC(=O)OC5)CC[C@]43O)C2)C(O)C(O)[C@H]1N` (stereo in doubt) [Compound 2.1, digitoxigenin α-L-4-amino-rhamnopyranoside], in the data set on NCI-H460 cells (Table 5, compounds of Table 2), the IC50 worked out at 5.1 nM. Further, the “cytotoxicity / activity for H460 cells, in words” value (shortened to “cytotoxicity / activity”) in the data set with NCI-H460 cells is on record as “improved cytotoxicity”.

On to `CC1O[C@@H](OC2C(O)[C@H](O[C@H]3CCC4(C)C(CC[C@@H]5C4CCC4(C)[C@@H](C6=CC(=O)OC6)CC[C@]54O)C3)OC(C)[C@@H]2O)C(O)C(O)[C@H]1O` (stereo in doubt) [Compound 2.3, digitoxigenin α-L-rhamnopyranosyl-(1 → 3)-α-L-rhamnopyranoside], for which the half-inhibitory concentration (IC50) in the data set on NCI-H460 cells (Table 5, compounds of Table 2) stood at 45.5 nM. The “cytotoxicity / activity” value in the data set with NCI-H460 cells was “does not significantly reduce activity”.

Turning to `CC1O[C@H](OC2C(O)[C@H](O[C@H]3CCC4(C)C(CC[C@@H]5C4CCC4(C)[C@@H](C6=CC(=O)OC6)CC[C@]54O)C3)OC(C)[C@@H]2O)C(O)C(O)[C@@H]1O` (stereo in doubt) [Compound 2.4, digitoxigenin α-D-rhamnopyranosyl-(1 → 3)-α-L-rhamnopyranoside], the IC50 with NCI-H460 cells (Table 5, compounds of Table 2) was found to be 332 nM.

Take `CC1O[C@H](OC2C(O)[C@H](OC3C(O)[C@H](O[C@H]4CCC5(C)C(CC[C@@H]6C5CCC5(C)[C@@H](C7=CC(=O)OC7)CC[C@]65O)C4)OC(C)[C@@H]3O)OC(C)[C@@H]2O)C(O)C(O)[C@@H]1O` (stereo in doubt) [Compound 2.9, digitoxigenin α-D-rhamnopyranosyl-(1 → 3)-α-L-rhamnopyranosyl-(1 → 3)-α-L-rhamnopyranoside]: the IC50 in the data set with NCI-H460 cells (Table 5, compounds of Table 2) turned out to be 86 nM.

As to `CC1O[C@@H](OC2C(O)[C@H](OC3C(O)[C@H](O[C@H]4CCC5(C)C(CC[C@@H]6C5CCC5(C)[C@@H](C7=CC(=O)OC7)CC[C@]65O)C4)OC(C)[C@@H]3O)OC(C)[C@@H]2O)C(O)C(O)[C@H]1O` (stereo in doubt) [Compound 2.10, digitoxigenin α-L-rhamnopyranosyl-(1 → 3)-α-L-rhamnopyranosyl-(1 → 3)-α-L-rhamnopyranoside], in the data set on NCI-H460 cells (Table 5, compounds of Table 2), the IC50 is 50.6 nM.

`C[C@@H]1O[C@@H](O[C@H]2CC[C@@]3(C)[C@H](CC[C@@H]4[C@@H]3C[C@@H](O)[C@]3(C)[C@@H](C5=CC(=O)OC5)CC[C@]43O)C2)CC[C@H]1O` (stereo in doubt) [Compound 3.3, digoxigenin α-L-amecitopyranoside]: the IC50 in the data set on NCI-H460 cells (Table 6, compounds of Table 3) came to 54 nM. Also, the “cytotoxicity / activity” value in the data set on NCI-H460 cells is listed as “more active than the diastereomeric α-D-sugars”.

`C[C@@H]1O[C@@H](O[C@H]2CC[C@@]3(C)[C@H](CC[C@@H]4[C@@H]3C[C@@H](O)[C@]3(C)[C@@H](C5=CC(=O)OC5)CC[C@]43O)C2)[C@H](O)[C@H](O)[C@H]1O` (stereo in doubt) [Compound 3.7, digoxigenin α-L-rhamnopyranoside]: in the data set with NCI-H460 cells (Table 6, compounds of Table 3), the IC50 came to 19 nM. The “cytotoxicity / activity” value in the data set with NCI-H460 cells is recorded as “more active than the diastereomeric α-D-sugars”.

As for `CC1O[C@@H](O[C@H]2CCC3(C)C(CC[C@@H]4C3CCC3(C)[C@@H](C5=CC(=O)OC5)CC[C@]43O)C2)CC[C@H]1N` (stereo partly drawn) [Compound 2.2, digitoxigenin α-L-4-amino-amecitopyranoside], the IC50 with NCI-H460 cells (Table 5, compounds of Table 2) stood at 3.1 nM. Also, the “cytotoxicity / activity” value with NCI-H460 cells is given as “improved cytotoxicity”.

In the case of `CC1OC(O[C@H]2CCC3(C)C(CCC4C3CCC3(C)[C@@H](C5=CC(=O)OC5)CC[C@]43O)C2)C(O)C(OC2CC[C@@H](O)C(C)O2)[C@H]1O` (stereo partly drawn) [Compound 2.5, [2,3-dihydro-4-hydroxy-α-L-Amip-(1→3)-2,4-dihydroxy-α-L-Rhap]-Dig], the IC50 with NCI-H460 cells (Table 5, compounds of Table 2) turned out to be 389 nM.

As for `CC1OC(O[C@H]2CCC3(C)C(CCC4C3CCC3(C)[C@@H](C5=CC(=O)OC5)CC[C@]43O)C2)C(O)C(OC2CC[C@H](O)C(C)O2)[C@H]1O` (stereo partly drawn) [Compound 2.6, [2,3-dihydro-4-hydroxy-α-D-Amip-(1→3)-2,4-dihydroxy-α-L-Rhap]-Dig], the IC50 in the data set with NCI-H460 cells (Table 5, compounds of Table 2) is 651 nM.

As for `CC1O[C@H](O[C@H]2C(C)O[C@@H](O[C@H]3CCC4(C)C(CC[C@@H]5C4CCC4(C)[C@@H](C6=CC(=O)OC6)CC[C@]54O)C3)C(O)C2O)C(O)C(O)[C@@H]1O` (stereo partly drawn) [Compound 2.7, digitoxigenin α-D-rhamnopyranosyl-(1 → 4)-α-L-rhamnopyranoside], the IC50 in the data set with NCI-H460 cells (Table 5, compounds of Table 2) came out at 70 nM. In the data set on NCI-H460 cells, the “cytotoxicity / activity” value is given as “much greater activity”.

For `C[C@H]1O[C@H](O[C@H]2CC[C@@]3(C)[C@H](CC[C@@H]4[C@@H]3C[C@@H](O)[C@]3(C)[C@@H](C5=CC(=O)OC5)CC[C@]43O)C2)CC[C@@H]1O` [Compound 3.1], the IC50 in the data set on NCI-H460 cells (Table 6, compounds of Table 3) was 253 nM.

Turning to `C[C@H]1O[C@H](O[C@H]2CC[C@@]3(C)[C@H](CC[C@@H]4[C@@H]3C[C@@H](O)[C@]3(C)[C@@H](C5=CC(=O)OC5)CC[C@]43O)C2)[C@@H](O)[C@@H](O)[C@@H]1O` [Compound 3.2], in the data set with NCI-H460 cells (Table 6, compounds of Table 3), the IC50 was 486 nM.

With `CC(=O)O[C@@H]1C[C@H]2[C@@H](CC[C@@H]3C[C@@H](O[C@H]4CC[C@@H](O)[C@H](C)O4)CC[C@@]32C)[C@@]2(O)CC[C@H](C3=CC(=O)OC3)[C@@]12C` [Compound 3.4], the IC50 in the data set on NCI-H460 cells (Table 6, compounds of Table 3) was 3440 nM.

As for `C[C@@H]1O[C@@H](O[C@H]2CC[C@@]3(C)[C@H](CC[C@@H]4[C@@H]3C[C@@H](OC(=O)C(C)(C)C)[C@]3(C)[C@@H](C5=CC(=O)OC5)CC[C@]43O)C2)CC[C@H]1O` [Compound 3.5], the IC50 with NCI-H460 cells (Table 6, compounds of Table 3) was at least 50000 nM. Also, in the data set on NCI-H460 cells, the “cytotoxicity / activity” value is reported as “greatly reduced activity”.

In the case of `C[C@@H]1O[C@@H](O[C@H]2CC[C@@]3(C)[C@H](CC[C@@H]4[C@@H]3C[C@@H](O[Si](C)(C)C(C)(C)C)[C@]3(C)[C@@H](C5=CC(=O)OC5)CC[C@]43O)C2)CC[C@H]1O` [Compound 3.6], in the data set on NCI-H460 cells (Table 6, compounds of Table 3), the IC50 amounted to 29700 nM.

As for `CC(=O)O[C@@H]1C[C@H]2[C@@H](CC[C@@H]3C[C@@H](O[C@@H]4O[C@@H](C)[C@H](O)[C@@H](O)[C@H]4O)CC[C@@]32C)[C@@]2(O)CC[C@H](C3=CC(=O)OC3)[C@@]12C` [Compound 3.8], the IC50 with NCI-H460 cells (Table 6, compounds of Table 3) is 5980 nM.

In the case of `C[C@@H]1O[C@@H](O[C@H]2CC[C@@]3(C)[C@H](CC[C@@H]4[C@@H]3C[C@@H](OC(=O)CCl)[C@]3(C)[C@@H](C5=CC(=O)OC5)CC[C@]43O)C2)[C@H](O)[C@H](O)[C@H]1O` [Compound 3.9], the 50% inhibitory concentration (IC50) in the data set with NCI-H460 cells (Table 6, compounds of Table 3) was found to be 105 nM.

In the case of `C[C@@H]1O[C@@H](O[C@H]2CC[C@@]3(C)[C@H](CC[C@@H]4[C@@H]3C[C@@H](OC(=O)C(C)(C)C)[C@]3(C)[C@@H](C5=CC(=O)OC5)CC[C@]43O)C2)[C@H](O)[C@H](O)[C@H]1O` [Compound 3.10], in the data set with NCI-H460 cells (Table 6, compounds of Table 3), the half-inhibitory concentration (IC50) was at least 50000 nM. Also, the “cytotoxicity / activity” value in the data set with NCI-H460 cells is listed as “greatly reduced activity”.

As for `C[C@@H]1O[C@@H](O[C@H]2CC[C@@]3(C)[C@H](CC[C@@H]4[C@@H]3C[C@@H](O[Si](C)(C)C(C)(C)C)[C@]3(C)[C@@H](C5=CC(=O)OC5)CC[C@]43O)C2)[C@H](O)[C@H](O)[C@H]1O` [Compound 3.11], in the data set with NCI-H460 cells (Table 6, compounds of Table 3), the IC50 stood at 2250 nM.

α-D-Mannose: in the data set with HCMV, the EC50 was determined as 7.31 ± 0.12 nM.

These data come from US20160176914A1, “GLYCOSYLATED CARDIOTONIC STEROIDS” (priority 2013, published 2016).
